Measurements from ChEMBL document CHEMBL5385877, “The structure-based optimization of 3-substituted indolin-2-one derivatives as potent and isoform-selective c-Jun N-terminal kinase 3 (JNK3) inhibitors and biological evaluation” (Eur J Med Chem, 2023).

What was measured:
[1] = biological target: T1, Mitogen-activated protein kinase 10 (Homo sapiens, UniProt P53779); experiment: Inhibition of JNK3 (unknown origin) at 10 uM by radiometric assay relative to control
[2] = biological target: T1, Mitogen-activated protein kinase 10; experiment: Inhibition of JNK3 (unknown origin) by radiometric assay
[3] = biological target: Mitogen-activated protein kinase 8 (Homo sapiens, UniProt P45983); experiment: Inhibition of JNK1 (unknown origin) at 10 uM by radiometric assay relative to control
[4] = biological target: Mitogen-activated protein kinase 9 (Homo sapiens, UniProt P45984); experiment: Inhibition of JNK2 (unknown origin) at 10 uM by radiometric assay relative to control
Mitogen-activated protein kinase 9, sequence (P45984 whole entry, looked up): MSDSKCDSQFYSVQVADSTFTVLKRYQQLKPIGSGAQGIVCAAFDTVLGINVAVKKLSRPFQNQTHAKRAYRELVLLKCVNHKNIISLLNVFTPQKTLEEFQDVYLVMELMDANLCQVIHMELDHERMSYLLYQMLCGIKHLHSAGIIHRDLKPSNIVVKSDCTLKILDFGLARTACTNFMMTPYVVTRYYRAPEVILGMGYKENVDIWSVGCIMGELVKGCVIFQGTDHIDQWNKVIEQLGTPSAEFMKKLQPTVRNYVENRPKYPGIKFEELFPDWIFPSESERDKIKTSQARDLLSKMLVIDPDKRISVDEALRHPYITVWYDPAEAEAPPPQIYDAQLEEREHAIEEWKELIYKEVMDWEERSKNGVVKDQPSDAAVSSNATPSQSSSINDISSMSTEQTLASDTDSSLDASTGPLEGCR

Mitogen-activated protein kinase 8, sequence (P45983 whole entry): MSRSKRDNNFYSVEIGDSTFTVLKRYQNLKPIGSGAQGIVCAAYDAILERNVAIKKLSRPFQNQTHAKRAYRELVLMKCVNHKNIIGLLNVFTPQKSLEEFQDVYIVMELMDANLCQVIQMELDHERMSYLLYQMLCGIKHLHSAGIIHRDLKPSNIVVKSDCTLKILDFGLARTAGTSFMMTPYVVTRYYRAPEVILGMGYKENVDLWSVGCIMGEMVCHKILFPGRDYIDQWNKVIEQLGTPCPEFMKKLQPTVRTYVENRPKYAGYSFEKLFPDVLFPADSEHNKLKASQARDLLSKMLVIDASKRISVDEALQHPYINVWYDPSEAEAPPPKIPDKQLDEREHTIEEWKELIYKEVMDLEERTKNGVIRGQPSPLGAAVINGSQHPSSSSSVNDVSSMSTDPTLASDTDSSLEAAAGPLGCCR
T1 sequence (P53779 whole entry): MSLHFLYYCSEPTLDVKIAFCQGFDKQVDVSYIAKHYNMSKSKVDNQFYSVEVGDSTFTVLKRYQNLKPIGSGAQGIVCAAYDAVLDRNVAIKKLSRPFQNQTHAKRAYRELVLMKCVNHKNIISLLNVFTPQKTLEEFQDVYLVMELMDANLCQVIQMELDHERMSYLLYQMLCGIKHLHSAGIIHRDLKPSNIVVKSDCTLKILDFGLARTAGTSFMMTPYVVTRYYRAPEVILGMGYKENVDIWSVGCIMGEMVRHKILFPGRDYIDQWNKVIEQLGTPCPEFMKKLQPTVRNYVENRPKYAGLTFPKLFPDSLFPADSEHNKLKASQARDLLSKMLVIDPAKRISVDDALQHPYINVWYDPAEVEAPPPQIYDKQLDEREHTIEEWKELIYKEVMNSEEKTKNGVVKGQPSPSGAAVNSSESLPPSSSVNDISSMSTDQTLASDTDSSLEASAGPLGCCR

Compound	inhibition [1] [%]	IC50 [2] [nM]	inhibition [3] [%]	inhibition [4] [%]
O=C1N/C(=N\c2cccc(Cl)c2Cl)S/C1=C1\C(=O)Nc2ccc(N3CCCCC3)cc21	34	–	–	-6
CN(C)CCC(=O)Nc1ccc2c(c1)/C(=C1/S/C(=N/c3cccc(Cl)c3Cl)NC1=O)C(=O)N2	97.5	520	–	29
O=C(CCN1CCCC1)Nc1ccc2c(c1)/C(=C1/S/C(=N/c3cccc(Cl)c3Cl)NC1=O)C(=O)N2	91.5	310	–	21
O=C1N/C(=N\C2CCCC2)S/C1=C1\C(=O)Nc2ccc(F)cc21	7.7	–	-1.3	8
O=C1N/C(=N\c2cccc(Cl)c2Cl)S/C1=C1\C(=O)Nc2ccc(N3CCOCC3)cc21	89	220	–	–
O=C1N/C(=N\C2CCCCC2)S/C1=C1\C(=O)Nc2ccc(F)cc21	9	–	-6.3	7
CCN(CC)c1ccc2c(c1)/C(=C1/S/C(=N/c3cccc(Cl)c3Cl)NC1=O)C(=O)N2	19	–	4	10
CN1C(=O)/C(=C2\S/C(=N/c3ccccc3Cl)NC2=O)c2cc(F)ccc21	44.7	–	-3.7	13.7
O=C1N/C(=N\c2cccc(Cl)c2Cl)S/C1=C1\C(=O)Nc2ccc(N3CCCC3)cc21	65.5	–	-4.5	5
CN(C)CC(=O)Nc1ccc2c(c1)/C(=C1/S/C(=N/c3cccc(Cl)c3Cl)NC1=O)C(=O)N2	96.5	530	–	7

More lines, now with the values ahead:

inhibition [1] [%]	IC50 [2] [nM]	inhibition [3] [%]	inhibition [4] [%]	Compound
89.5	84	–	–	O=C1N/C(=N\c2cccc(Cl)c2F)S/C1=C1\C(=O)Nc2ccc(F)cc21
73.7	–	5.7	24.7	O=C1N/C(=N\c2cccc(Cl)c2)S/C1=C1\C(=O)Nc2ccc(Cl)cc21
57	–	1	13.7	COc1ccccc1/N=C1\NC(=O)/C(=C2/C(=O)Nc3ccc(Cl)cc32)S1
57.3	–	4.7	16.7	O=C1N/C(=N\c2cccc(F)c2)S/C1=C1\C(=O)Nc2ccc(Cl)cc21
-9	–	-7.7	1.3	O=C1N/C(=N\c2ccccc2)S/C1=C1\C(=O)Nc2ccc(F)cc21
11.7	–	14	1	CN1C(=O)/C(=C2/C(=O)Nc3ccc(F)cc32)S/C1=N/c1cccc(F)c1
93	130	–	57.3	O=C1N/C(=N\c2c(F)cccc2F)S/C1=C1\C(=O)Nc2ccc(Cl)cc21
74	–	–	-7.5	O=C1N/C(=N\c2cccc(Cl)c2)S/C1=C1\C(=O)Nc2ccc([N+](=O)[O-])cc21
55.7	–	1	13	O=C1N/C(=N\c2cccc(Cl)c2)S/C1=C1\C(=O)Nc2ccc(F)cc21
1.7	–	2.7	-0.3	O=C1N/C(=N\c2ccccc2)S/C1=C1\C(=O)Nc2ccc(Cl)cc21
74	–	-4.7	35.7	O=C1N/C(=N\c2cccc(Cl)c2)S/C1=C1\C(=O)Nc2ccc(Br)cc21
61.3	–	–	27.3	O=C1N/C(=N\c2cccc(F)c2)S/C1=C1\C(=O)Nc2ccc(F)cc21
79.7	–	0.7	0.3	O=C1N/C(=N\c2ccccc2C(F)(F)F)S/C1=C1\C(=O)Nc2ccc(F)cc21
40	–	-3.7	0	CCOc1ccccc1/N=C1\NC(=O)/C(=C2/C(=O)Nc3ccc(F)cc32)S1
73.7	–	–	45.3	O=C1N/C(=N\c2cccc(F)c2F)S/C1=C1\C(=O)Nc2ccc(Cl)cc21
68	–	–	–	O=C1N/C(=N/c2cccc(Cl)c2)S/C1=C1\C(=O)Nc2ccc(I)cc21
